Consider eight compounds from PubChem BioAssay (NCI).

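Five compound concentrations were applied to cells in 96-well plates for 48 hours; endpoints were derived by simple linear interpolation of the resulting dose-response curve. The concentration for full growth arrest is given as TGI.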

Test systems include CCRF-CEM leukemia; COLO 205 colon; EKVX NSCLC; HCC-2998 colon; HL-60(TB) leukemia; IGROV1 ovarian; MALME-3M melanoma; MDA-MB-435; NCI-H522 lung; OVCAR-5 ovarian; SF-268 CNS; SK-MEL-28 melanoma; SK-MEL-5 melanoma; SK-OV-3 ovarian; SNB-75 CNS; SR leukemia; U251 CNS; UACC-62 melanoma; TK-10 renal.
Common to all, as to assay: growth of human tumour cells (NCI), 48 h

`CCOC(=O)c1ccc(NCc2ccc3oc(=O)c(-c4ccccc4)nc3c2)cc1`: the TGI is 22.6 µM with CCRF-CEM leukemia; 62.6 µM with COLO 205 colon; above 100 µM with EKVX NSCLC; above 100 µM in the test with HCC-2998 colon; 13.2 µM with HL-60(TB) leukemia; above 100 µM with IGROV1 ovarian. Also, the TGI was 38.8 µM with MALME-3M melanoma; 32.7 µM in the test on MDA-MB-435; 32.1 µM in the test on NCI-H522 lung; above 100 µM with OVCAR-5 ovarian; above 100 µM in the test with SF-268 CNS; 87.3 µM in the test with SK-MEL-28 melanoma. Besides, the TGI was 45.2 µM in the test with SK-MEL-5 melanoma; above 100 µM in the test with SK-OV-3 ovarian; above 100 µM with SNB-75 CNS; above 100 µM with SR leukemia; above 100 µM in the test on U251 CNS; above 100 µM in the test with UACC-62 melanoma.
Take `CCOC(=O)c1cn2c(n1)sc1cc(Cl)ccc12`: the TGI was above 100 µM in the test on CCRF-CEM leukemia; 60.8 µM with COLO 205 colon; above 100 µM in the test with EKVX NSCLC; above 100 µM in the test with HCC-2998 colon; above 100 µM in the test with IGROV1 ovarian; 99.1 µM in the test on MALME-3M melanoma. For the same compound, the TGI in the test with MDA-MB-435, in the test with NCI-H522 lung, in the test on OVCAR-5 ovarian, in the test on SF-268 CNS, in the test on SK-MEL-28 melanoma and in the test with SK-MEL-5 melanoma was above 100 µM in each case. The TGI was above 100 µM in the test with SK-OV-3 ovarian; above 100 µM in the test on SNB-75 CNS; above 100 µM in the test with SR leukemia; above 100 µM with TK-10 renal; 60.7 µM in the test with U251 CNS; above 100 µM in the test on UACC-62 melanoma.
Turning to `N#Cc1[nH]c(=O)n(-c2ccccc2)c1N`, the TGI with CCRF-CEM leukemia, with COLO 205 colon, in the test with EKVX NSCLC, in the test on HCC-2998 colon, with HL-60(TB) leukemia and with IGROV1 ovarian was above 10 µM in each case. Further, the TGI with MALME-3M melanoma, in the test with MDA-MB-435, with OVCAR-5 ovarian, in the test with SF-268 CNS, in the test on SK-MEL-28 melanoma and in the test on SK-MEL-5 melanoma was above 10 µM each time. For the same compound, the TGI with SK-OV-3 ovarian, in the test with SNB-75 CNS, in the test on SR leukemia, in the test with TK-10 renal, in the test on U251 CNS and with UACC-62 melanoma was above 10 µM throughout.
As for `CC1(C)OC(=O)N(c2ccccc2)C12C=Cc1cc([N+](=O)[O-])ccc1O2` (configuration not stated), the TGI in the test on CCRF-CEM leukemia was 99 µM; in the test with COLO 205 colon it was above 100 µM; in the test on EKVX NSCLC it was 98.7 µM; with HCC-2998 colon it was above 100 µM; with HL-60(TB) leukemia, 63.7 µM; with IGROV1 ovarian, above 100 µM. Also, the TGI is 62.8 µM with MDA-MB-435; above 100 µM with NCI-H522 lung; above 100 µM in the test with OVCAR-5 ovarian; above 100 µM with SF-268 CNS; above 100 µM in the test on SK-MEL-28 melanoma; above 100 µM in the test with SK-MEL-5 melanoma. Also, the TGI in the test on SK-OV-3 ovarian is 66.4 µM; with SNB-75 CNS, above 100 µM; with SR leukemia, 75.3 µM; with TK-10 renal, above 100 µM; with U251 CNS it was above 100 µM; in the test on UACC-62 melanoma, above 100 µM.
Consider `CCOC(C)O[C@H]1C(=O)OCC1(C)C` (some centres not stated), for which the TGI with CCRF-CEM leukemia, with COLO 205 colon, in the test on EKVX NSCLC, with HCC-2998 colon, in the test with HL-60(TB) leukemia and in the test with IGROV1 ovarian was above 100 µM each time. Further, the TGI with MALME-3M melanoma, with MDA-MB-435, with OVCAR-5 ovarian, with SF-268 CNS, in the test on SK-MEL-28 melanoma and in the test with SK-MEL-5 melanoma was above 100 µM each time. For the same compound, the TGI in the test with SK-OV-3 ovarian, in the test on SNB-75 CNS, with SR leukemia, with TK-10 renal, in the test with U251 CNS and in the test on UACC-62 melanoma was above 100 µM each time.
Regarding `Clc1ccc(-c2cc3nc4ccccc4nc3o2)cc1`, the TGI in the test on CCRF-CEM leukemia, with COLO 205 colon, in the test on EKVX NSCLC, in the test with HCC-2998 colon, with HL-60(TB) leukemia and in the test on IGROV1 ovarian was above 100 µM in each case. Further, the TGI in the test on MALME-3M melanoma, with MDA-MB-435, in the test on OVCAR-5 ovarian, in the test on SF-268 CNS, in the test with SK-MEL-28 melanoma and in the test on SK-MEL-5 melanoma was above 100 µM throughout. The TGI was above 100 µM in the test with SK-OV-3 ovarian; 48.3 µM with SNB-75 CNS; above 100 µM in the test with SR leukemia; above 100 µM with TK-10 renal; above 100 µM in the test on U251 CNS; above 100 µM with UACC-62 melanoma.
`CCO/C=N\C1=C(C#N)SC2=N/C(=C\c3ccc(OC)cc3)C(=O)N21`: the TGI with CCRF-CEM leukemia, in the test with COLO 205 colon, in the test on EKVX NSCLC, in the test with HCC-2998 colon, in the test on HL-60(TB) leukemia and with IGROV1 ovarian was above 100 µM throughout. Also, the TGI with MALME-3M melanoma, in the test with MDA-MB-435, in the test on NCI-H522 lung, in the test with OVCAR-5 ovarian, in the test on SF-268 CNS and in the test with SK-MEL-28 melanoma was above 100 µM each time. The TGI in the test on SK-MEL-5 melanoma was above 100 µM; with SK-OV-3 ovarian, above 100 µM; in the test on SNB-75 CNS it was 46.6 µM; in the test with SR leukemia, above 100 µM; in the test on TK-10 renal, above 100 µM; with U251 CNS, above 100 µM.
Consider `Cn1c([C@H](C#N)c2ncccc2[N+](=O)[O-])nc2ccccc21`, for which the TGI with CCRF-CEM leukemia, in the test on EKVX NSCLC, in the test with HCC-2998 colon, in the test with HL-60(TB) leukemia, with MALME-3M melanoma and with MDA-MB-435 was above 100 µM throughout. Also, the TGI is 38.3 µM in the test on NCI-H522 lung; above 100 µM in the test on OVCAR-5 ovarian; above 100 µM with SF-268 CNS; above 100 µM in the test on SK-MEL-28 melanoma; above 100 µM in the test with SK-OV-3 ovarian; 67.1 µM in the test on SNB-75 CNS. For the same compound, the TGI in the test with SR leukemia, in the test on TK-10 renal, with U251 CNS and in the test on UACC-62 melanoma was above 100 µM each time.
